We go through three compounds from ChEMBL document CHEMBL5528051, “Chelerythrine Chloride is an Affinity-Labeling Inactivator of CYP3A4 by Modification of Cysteine239” (J Med Chem, 2024).

Data set [1] is described as follows: Chemical reactivity of compound to NAL in PBS at pH 7.4 by UV spectrometric assay. In kind it is physicochemical. Conditions: buffer; call rule not given here.
A short description of data set [2]: Chemical reactivity of compound to NAC in PBS at pH 7.4 by UV spectrometric assay. The settings on record: buffer. It counts as physicochemical.
A short description of data set [3]: Chemical reactivity of compound to serine in PBS at pH 7.4 by UV spectrometric assay. The settings on record: buffer. It counts as physicochemical.
For data set [4], the target named is T1, Cytochrome P450 3A4 (Homo sapiens, UniProt P08684). Description: Time dependent inhibition of CYP3A4 (unknown origin) at 50 uM measured after 5 to 15 mins in presence of NADPH. In kind it is ADME. Conditions: time 5-15 min.
T1 sequence (P08684 whole entry): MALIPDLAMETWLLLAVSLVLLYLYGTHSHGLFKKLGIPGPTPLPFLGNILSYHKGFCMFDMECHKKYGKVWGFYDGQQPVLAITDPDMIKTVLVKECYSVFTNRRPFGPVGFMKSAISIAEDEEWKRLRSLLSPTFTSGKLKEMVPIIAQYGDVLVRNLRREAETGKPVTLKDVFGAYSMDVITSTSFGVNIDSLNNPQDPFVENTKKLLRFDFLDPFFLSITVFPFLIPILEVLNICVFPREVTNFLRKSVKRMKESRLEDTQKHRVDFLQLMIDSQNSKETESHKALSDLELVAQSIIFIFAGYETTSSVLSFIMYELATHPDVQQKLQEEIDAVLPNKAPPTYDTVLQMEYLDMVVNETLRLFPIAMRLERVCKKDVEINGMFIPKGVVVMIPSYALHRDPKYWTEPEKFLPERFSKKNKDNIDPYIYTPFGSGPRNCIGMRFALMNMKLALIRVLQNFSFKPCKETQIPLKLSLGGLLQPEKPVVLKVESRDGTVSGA
The target of data set [5] is T2, CYP3A4 (Homo sapiens, UniProt P08684). Description: Inhibition of CYP3A4 (unknown origin) assessed as remaining activity at 50 uM incubated for 15 mins in presence of 2 mM NAC. Conditions: read-out: Activity. It counts as ADME.
T2 sequence (P08684 whole entry): as above
Data set [6] deals with CYP2E1 (Homo sapiens, UniProt P05181). Description: Inhibition of human CYP2E1 assessed as remaining activity at 50 uM using 4-nitrophenol as substrate preincubated for 3 mins followed by substrate addition and measured upto 15 mins by LC-MS/MS analysis. It counts as ADME. The settings on record: probe 4-nitrophenol, time < 18 min, read-out: Activity.
Sequence of CYP2E1 (P05181 whole entry): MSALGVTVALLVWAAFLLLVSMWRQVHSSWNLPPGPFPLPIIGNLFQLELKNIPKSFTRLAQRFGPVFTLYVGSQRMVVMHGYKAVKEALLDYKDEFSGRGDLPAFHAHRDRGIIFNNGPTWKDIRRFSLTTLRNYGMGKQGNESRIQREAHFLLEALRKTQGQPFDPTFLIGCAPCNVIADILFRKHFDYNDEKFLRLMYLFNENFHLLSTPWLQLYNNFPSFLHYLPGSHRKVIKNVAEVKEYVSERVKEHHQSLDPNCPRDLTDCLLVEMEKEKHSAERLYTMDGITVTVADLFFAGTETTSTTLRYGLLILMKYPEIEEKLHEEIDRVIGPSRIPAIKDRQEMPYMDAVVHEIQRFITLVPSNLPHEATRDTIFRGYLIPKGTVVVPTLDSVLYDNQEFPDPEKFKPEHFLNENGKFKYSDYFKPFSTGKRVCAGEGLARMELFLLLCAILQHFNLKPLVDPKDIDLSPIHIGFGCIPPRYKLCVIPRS
Data set [7] deals with CYP2D6 (Homo sapiens, UniProt P10635). Description: Inhibition of human CYP2D6 assessed as remaining activity at 50 uM using dextromethorphan as substrate preincubated for 3 mins followed by substrate addition and measured upto 15 mins by LC-MS/MS analysis. It counts as ADME. Conditions: probe dextromethorphan, time < 18 min, read-out: Activity.
Sequence of CYP2D6 (P10635 whole entry): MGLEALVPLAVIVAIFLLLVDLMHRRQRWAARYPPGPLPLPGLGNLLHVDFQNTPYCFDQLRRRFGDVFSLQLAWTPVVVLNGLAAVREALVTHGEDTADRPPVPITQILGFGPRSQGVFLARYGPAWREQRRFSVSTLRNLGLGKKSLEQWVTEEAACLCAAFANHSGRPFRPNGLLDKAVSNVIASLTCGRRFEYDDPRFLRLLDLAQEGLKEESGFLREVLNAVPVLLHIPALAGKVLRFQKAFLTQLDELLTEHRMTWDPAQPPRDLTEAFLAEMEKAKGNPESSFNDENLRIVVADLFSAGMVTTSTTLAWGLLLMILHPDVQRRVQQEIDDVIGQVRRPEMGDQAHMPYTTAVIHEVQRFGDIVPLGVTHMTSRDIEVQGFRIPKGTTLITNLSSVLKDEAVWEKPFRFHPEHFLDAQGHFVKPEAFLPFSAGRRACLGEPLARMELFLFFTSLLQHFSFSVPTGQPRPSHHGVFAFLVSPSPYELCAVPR
Data set [8] deals with T2, CYP3A4. Description: Inhibition of CYP3A4 (unknown origin) assessed as remaining activity at 50 uM incubated for 15 mins in presence of 20 mM NAC. In kind it is ADME. Conditions: read-out: Activity.
Data set [9] has as its target T1, Cytochrome P450 3A4. Description: Inhibition of CYP3A4 (unknown origin) at 50 uM preincubated for 3 mins followed by NADPH addition and measured after 5 to 15 mins by LC-MS/MS analysis. In kind it is ADME. The settings on record: time 8-18 min.
Data set [10] deals with T2, CYP3A4. Description: Inhibition of CYP3A4 (unknown origin) assessed as remaining activity at 50 uM measured 15 mins before dialysis (reference value: 87.2 +/- 2.3 %). It counts as ADME. The settings on record: read-out: Activity.
In data set [11] the target is T1, Cytochrome P450 3A4. Description: Inhibition of CYP3A4 (unknown origin) at 10 to 50 uM by LC-MS/MS analysis. The settings on record: TDE = time-dependent effect, dose lower 10 µM, time lower 5 min, dose upper 50 µM, time upper 15 min. In kind it is ADME.
The target in data set [12] is T3, CYP1A2 (Homo sapiens, UniProt P05177).
T3 sequence (P05177 whole entry): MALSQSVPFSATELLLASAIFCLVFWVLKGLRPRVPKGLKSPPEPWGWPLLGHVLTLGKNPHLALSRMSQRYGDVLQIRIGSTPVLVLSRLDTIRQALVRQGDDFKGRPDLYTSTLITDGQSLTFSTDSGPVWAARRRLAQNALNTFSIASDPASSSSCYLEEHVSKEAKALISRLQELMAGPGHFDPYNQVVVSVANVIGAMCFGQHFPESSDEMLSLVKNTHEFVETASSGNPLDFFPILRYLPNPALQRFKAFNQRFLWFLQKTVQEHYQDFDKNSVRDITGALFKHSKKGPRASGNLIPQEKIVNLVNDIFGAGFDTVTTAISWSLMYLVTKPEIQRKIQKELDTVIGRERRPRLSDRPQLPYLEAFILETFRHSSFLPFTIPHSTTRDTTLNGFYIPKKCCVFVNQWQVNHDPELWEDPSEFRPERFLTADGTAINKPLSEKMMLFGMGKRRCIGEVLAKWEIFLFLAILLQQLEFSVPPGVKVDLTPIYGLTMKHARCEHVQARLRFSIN
Description: Inhibition of human CYP1A2 assessed as remaining activity at 50 uM using phenacetin as substrate preincubated for 3 mins followed by substrate addition and measured upto 15 mins by LC-MS/MS analysis (reference value: 85.4 +/- 3.42 %). It counts as ADME. The settings on record: probe phenacetin, time < 18 min, read-out: Activity.

The target in data set [13] is CYP3A5 (Homo sapiens, UniProt P20815). Description: Inhibition of human CYP3A5 assessed as remaining activity at 50 uM using testosterone as substrate preincubated for 3 mins followed by substrate addition and measured upto 15 mins by LC-MS/MS analysis. The settings on record: probe testosterone, time < 18 min, read-out: Activity. It counts as ADME.
Sequence of CYP3A5 (P20815 whole entry): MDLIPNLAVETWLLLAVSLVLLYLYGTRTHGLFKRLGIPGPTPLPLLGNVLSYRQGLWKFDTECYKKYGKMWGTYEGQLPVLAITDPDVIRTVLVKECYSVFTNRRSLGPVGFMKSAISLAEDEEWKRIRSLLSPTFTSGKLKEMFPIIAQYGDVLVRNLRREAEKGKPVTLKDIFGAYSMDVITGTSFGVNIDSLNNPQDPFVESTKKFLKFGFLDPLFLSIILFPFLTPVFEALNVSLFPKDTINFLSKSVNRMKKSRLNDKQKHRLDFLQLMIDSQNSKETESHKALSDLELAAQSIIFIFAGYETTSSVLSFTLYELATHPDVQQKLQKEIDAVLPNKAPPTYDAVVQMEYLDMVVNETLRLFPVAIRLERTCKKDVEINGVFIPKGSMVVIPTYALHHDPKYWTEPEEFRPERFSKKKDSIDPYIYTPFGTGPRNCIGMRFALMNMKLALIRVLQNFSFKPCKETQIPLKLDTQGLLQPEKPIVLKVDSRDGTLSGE
The target in data set [14] is T1, Cytochrome P450 3A4. Description: Inhibition of CYP3A4 (unknown origin) incubated for 5 to 15 mins by LC-MS/MS analysis. It counts as ADME. The settings on record: at 10 to 50 µM, dose lower 10 µM, time lower 5 min, dose upper 50 µM, time upper 15 min.
The target in data set [15] is Cytochrome P450 3A4 (Homo sapiens, UniProt P08684, C239S). Description: Inhibition of CYP3A4 C239S mutant (unknown origin) expressed in CHO cells using midazolam as substrate incubated for 6 hrs by LC-MS/MS analysis. In kind it is ADME, cell-based.
Sequence of Cytochrome P450 3A4 (Homo sapiens, UniProt P08684, C239S) (P08684 2-503 C239S limits assumed): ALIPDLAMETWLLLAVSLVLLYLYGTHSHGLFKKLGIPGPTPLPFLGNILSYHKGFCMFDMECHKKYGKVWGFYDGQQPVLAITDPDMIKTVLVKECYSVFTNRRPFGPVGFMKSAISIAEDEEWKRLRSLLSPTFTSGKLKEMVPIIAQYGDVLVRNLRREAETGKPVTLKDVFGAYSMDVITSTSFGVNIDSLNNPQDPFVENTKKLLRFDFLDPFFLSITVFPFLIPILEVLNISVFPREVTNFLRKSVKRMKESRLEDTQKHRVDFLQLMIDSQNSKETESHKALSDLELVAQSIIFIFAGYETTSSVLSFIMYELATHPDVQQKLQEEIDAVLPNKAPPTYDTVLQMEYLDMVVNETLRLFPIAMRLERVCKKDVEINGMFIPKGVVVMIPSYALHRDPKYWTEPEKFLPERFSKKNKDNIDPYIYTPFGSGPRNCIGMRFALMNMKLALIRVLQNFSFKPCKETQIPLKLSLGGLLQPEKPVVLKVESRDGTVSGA
Data set [16] has as its target CYP2C9 (Homo sapiens, UniProt P11712). Description: Inhibition of human CYP2C9 assessed as remaining activity at 50 uM using diclofenac sodium as substrate preincubated for 3 mins followed by substrate addition and measured upto 15 mins by LC-MS/MS analysis. It counts as ADME. The settings on record: probe diclofenac sodium, time < 18 min, read-out: Activity.
Data set [17] deals with T4, CYP2B6 (Homo sapiens, UniProt P20813).
T4 sequence (P20813 whole entry): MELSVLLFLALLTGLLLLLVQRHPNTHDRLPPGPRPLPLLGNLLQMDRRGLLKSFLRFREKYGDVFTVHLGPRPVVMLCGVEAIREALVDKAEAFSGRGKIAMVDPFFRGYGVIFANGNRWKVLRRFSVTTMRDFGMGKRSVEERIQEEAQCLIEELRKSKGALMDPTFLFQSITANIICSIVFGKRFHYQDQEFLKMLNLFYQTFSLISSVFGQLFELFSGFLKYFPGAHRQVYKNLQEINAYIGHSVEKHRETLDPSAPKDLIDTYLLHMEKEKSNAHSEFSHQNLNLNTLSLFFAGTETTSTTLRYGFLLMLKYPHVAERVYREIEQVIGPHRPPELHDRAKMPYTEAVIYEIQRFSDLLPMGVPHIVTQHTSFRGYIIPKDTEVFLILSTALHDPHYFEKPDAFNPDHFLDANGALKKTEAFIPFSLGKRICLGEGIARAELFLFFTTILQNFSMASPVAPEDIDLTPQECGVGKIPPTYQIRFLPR
Description: Inhibition of human CYP2B6 assessed as remaining activity at 50 uM using bupropion.HCl as substrate preincubated for 3 mins followed by substrate addition and measured upto 15 mins by LC-MS/MS analysis. It counts as ADME. The settings on record: buffer, probe bupropion.HCl, time < 18 min, read-out: Activity.

In data set [18] the target is T5, CYP2A6 (Homo sapiens, UniProt P11509).
T5 sequence (P11509 whole entry): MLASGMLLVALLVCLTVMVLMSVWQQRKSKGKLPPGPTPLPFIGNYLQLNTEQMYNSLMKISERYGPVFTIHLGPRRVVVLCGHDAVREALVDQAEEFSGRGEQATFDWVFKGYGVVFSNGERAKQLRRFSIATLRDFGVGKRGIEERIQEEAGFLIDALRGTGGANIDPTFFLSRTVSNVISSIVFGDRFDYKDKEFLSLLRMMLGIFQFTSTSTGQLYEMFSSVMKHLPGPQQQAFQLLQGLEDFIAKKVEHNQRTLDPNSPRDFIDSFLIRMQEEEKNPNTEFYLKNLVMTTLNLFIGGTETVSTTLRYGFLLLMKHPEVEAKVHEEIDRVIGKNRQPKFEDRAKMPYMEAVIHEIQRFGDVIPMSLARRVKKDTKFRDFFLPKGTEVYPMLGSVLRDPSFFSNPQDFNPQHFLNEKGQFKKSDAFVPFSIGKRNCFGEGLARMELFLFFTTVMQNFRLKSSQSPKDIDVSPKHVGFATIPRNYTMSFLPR
Description: Inhibition of human CYP2A6 assessed as remaining activity at 50 uM using coumarin as substrate preincubated for 3 mins followed by substrate addition and measured upto 15 mins by LC-MS/MS analysis. In kind it is ADME. The settings on record: probe coumarin, time < 18 min, read-out: Activity.

Data set [19] has as its target T2, CYP3A4. Description: Inhibition of human CYP3A4 assessed as remaining activity at 50 uM using testosterone as substrate preincubated for 3 mins followed by substrate addition and measured upto 15 mins by LC-MS/MS analysis (reference value: 85.4 +/- 3.42 %). In kind it is ADME. Conditions: probe testosterone, time < 18 min, read-out: Activity.
Data set [20] addresses T2, CYP3A4. Description: Inhibition of CYP3A4 (unknown origin) assessed as remaining activity at 50 uM measured 15 mins after dialysis (reference value: 53.8 +/- 2.9 %). It counts as ADME. Conditions: read-out: Activity.
In data set [21] the target is T1, Cytochrome P450 3A4. Description: Inhibition of wild type CYP3A4 (unknown origin) expressed in CHO cells using midazolam as substrate incubated for 6 hrs by LC-MS/MS analysis. It counts as ADME, cell-based.
The target of data set [22] is T2, CYP3A4. Description: Inhibition of CYP3A4 (unknown origin) assessed as remaining activity at 50 uM incubated for 15 mins (reference value: 85 +/- 3.4%). In kind it is ADME. Conditions: read-out: Activity.
Data set [23] addresses T2, CYP3A4. Description: Inhibition of CYP3A4 (unknown origin) at 50 uM incubated for 15 mins by LC-MS/MS analysis. It counts as ADME.
Data set [24] deals with T2, CYP3A4. Description: Inhibition of CYP3A4 (unknown origin) assessed as remaining activity at 50 uM measured immediately (reference value: 100 %). In kind it is ADME. Conditions: read-out: Activity.
Data set [25] deals with T1, Cytochrome P450 3A4. Description: Inhibition of CYP3A4 (unknown origin) at 50 uM incubated for 5 to 15 mins in absence of NADPH by LC-MS/MS analysis. Conditions: time 5-15 min. In kind it is ADME.
In data set [26] the target is CYP2C19 (Homo sapiens, UniProt P33261). Description: Inhibition of human CYP2C19 assessed as remaining activity at 50 uM using omeprazole as substrate preincubated for 3 mins followed by substrate addition and measured upto 15 mins by LC-MS/MS analysis. It counts as ADME. The settings on record: probe omeprazole, time < 18 min, read-out: Activity.
Sequence of CYP2C19 (P33261 whole entry): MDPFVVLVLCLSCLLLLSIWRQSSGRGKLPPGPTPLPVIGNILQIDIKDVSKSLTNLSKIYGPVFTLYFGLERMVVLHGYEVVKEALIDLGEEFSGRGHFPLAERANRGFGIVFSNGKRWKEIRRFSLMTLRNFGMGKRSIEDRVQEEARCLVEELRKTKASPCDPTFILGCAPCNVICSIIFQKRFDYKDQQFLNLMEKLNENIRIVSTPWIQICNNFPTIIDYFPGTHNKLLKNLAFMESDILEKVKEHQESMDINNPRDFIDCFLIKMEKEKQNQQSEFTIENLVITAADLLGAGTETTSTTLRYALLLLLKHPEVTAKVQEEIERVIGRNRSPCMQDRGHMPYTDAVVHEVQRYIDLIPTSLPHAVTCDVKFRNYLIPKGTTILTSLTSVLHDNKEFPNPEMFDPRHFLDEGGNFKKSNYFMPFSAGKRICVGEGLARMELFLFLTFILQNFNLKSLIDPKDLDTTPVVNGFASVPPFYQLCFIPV
Data set [27] deals with T2, CYP3A4. Description: Inhibition of CYP3A4 (unknown origin) assessed as residual activity at 50 uM incubated for 5 to 15 mins in presence of ketoconazole. In kind it is ADME. Conditions: with ketoconazole, time 5-15 min, read-out: Activity.
The target of data set [28] is T1, Cytochrome P450 3A4. Description: Time dependent inhibition of CYP3A4 (unknown origin) at 50 uM measured after 5 to 15 mins. It counts as ADME. The settings on record: time 5-15 min.

Sequence of CYP2C9 (P11712 whole entry): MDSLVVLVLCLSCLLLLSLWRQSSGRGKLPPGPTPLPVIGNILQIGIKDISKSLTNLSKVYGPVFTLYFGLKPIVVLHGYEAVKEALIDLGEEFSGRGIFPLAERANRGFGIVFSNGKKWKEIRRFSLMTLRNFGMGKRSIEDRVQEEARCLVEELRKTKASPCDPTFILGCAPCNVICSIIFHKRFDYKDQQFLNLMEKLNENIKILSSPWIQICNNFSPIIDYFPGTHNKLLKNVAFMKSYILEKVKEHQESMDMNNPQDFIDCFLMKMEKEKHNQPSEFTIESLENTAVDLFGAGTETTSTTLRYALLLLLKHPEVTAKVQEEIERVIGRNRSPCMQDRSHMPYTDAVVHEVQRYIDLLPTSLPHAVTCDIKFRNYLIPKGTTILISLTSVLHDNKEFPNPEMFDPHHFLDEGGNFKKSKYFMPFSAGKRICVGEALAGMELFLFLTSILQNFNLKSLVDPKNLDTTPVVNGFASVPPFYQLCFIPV

On to `COc1cc2c[n+](C)c3c4cc5c(cc4ccc3c2cc1OC)OCO5.[Cl-]` [NITIDINE CHLORIDE], for which the Drug metabolism entry in data set [1], in data set [2] and in [3] was “Metabolite_Notdetected” throughout. Further, in data set [4], the TDI result is “Active”.
As for `COc1ccc2c(c[n+](C)c3c4cc5c(cc4ccc23)OCO5)c1OC.[Cl-]` [CHELERYTHRINE CHLORIDE], the activity at 0.25 h, 50 µM is 49.9% in data set [5]; more than 50% in data set [6]; more than 50% in data set [7]; 85.9% in data set [8]; 43.8% in [10]; more than 50% in [12]. For the same compound, the activity at 0.25 h, 50 µM in data set [13] is more than 50%; in data set [16], more than 50%; in data set [17], more than 50%; in data set [18] it was more than 50%; in [19] it was 26.3%; in [20] it was 25.1%. For the same compound, the figures for the activity at 0.25 h, 50 µM in [22] and in [26] were 26% and more than 50%, respectively. Besides, the “inhibition (INH)” value in data set [9] was “Active”; in data set [11], “Tde”; in data set [14], “Dose-Dependent Effect”; in data set [15], “Not Active”; in [21], “Active”; in data set [25], “Active”. Further, the Drug metabolism entry in data set [1] is recorded as “Metabolite_Notdetected”; in [2], “Metabolite_Detected”; in data set [3], “Metabolite_Notdetected”. Besides, the inhibition (as a rule, the relative decrease from the control value, in per cent) at 0.25 h, 50 µM in [23] amounted to 75%. In addition, in [24], the activity at 0 min, 50 µM was 70.7%. Besides, the activity at 50 µM in [27] is 50%.
As to `COc1ccc2c(c1OC)CN(C)c1c-2ccc2cc3c(cc12)OCO3` [DIHYDROCHELERYTHRINE], in data set [28], the TDI result was “Not Active”.
